One data set deals with HepG2 cells. The data set can be described thus: In vitro cytotoxicity to mammalian cells, HepG2. The format is cell-based. The settings on record: Homo sapiens. An excerpt:
(§1) Med. Chem. 2005, 13, 4458; Khan, I. A. Lipids 2004, 37, 169].

A further data set concerns parasitemia. Nature of the data set: In-vivo antimalarial activity in mice. The settings on record: mice; for parasitemia suppression / % Parasitemia suppression Day 5: day 5; for parasitemia suppression / survival rate / apparent toxicity: 30 mg/kg for 3 days post infection; for survival rate / Survival (animals that survived day 28/total animals in group): day 28; for Cure (number of mice without parasitemia till day 28 post-infection) / MST (mean survival time) / Remarks (toxicity) / % Parasitemia suppression Day 5 / % Parasitemia suppression Day 7 / Survival (animals that survived day 28/total animals in group) / Day of Death: PO; for Day of Death: per animal.

Data set [1] has as its system CQ-sensitive (D6 clone) strain of P. falciparum. The data set can be described thus: In vitro antimalarial activity, CQ-sensitive strain. The data set is classed as cell-based, Plasmodium falciparum. As to conditions: for activity fold higher than artemisinin: CQ-sensitive strain; for IC50: Plasmodium falciparum, CQ-sensitive D6 clone, read-out: P. falciparum (D6 Clone) IC50; for P. falciparum (D6 Clone) S.I.: selectivity index = IC50 cytotoxicity to Vero cells / IC50 antimalarial; for selectivity index of antimalarial activity: ratio of IC50 for cytotoxicity to Vero cells and IC50 for antimalarial activity.
From the text: as §1

Another data set has as its system VERO cells. Nature of the data set: In vitro cytotoxicity to mammalian cells, VERO. The format is cell-based. As to conditions: for IC50: Chlorocebus sabaeus, Vero, in vitro cytotoxicity to mammalian cells; for toxicity to cell lines: all the three cell lines (VERO, LLC-PK-1, and HepG2).
From the text: as §1

Data set [2] concerns CQ-resistant (W2 clone) strain of P. falciparum. The data set can be described thus: In vitro antimalarial activity, CQ-resistant strain. The format is cell-based, Plasmodium falciparum. As to conditions: for IC50: Plasmodium falciparum, CQ-resistant W2 clone, read-out: P. falciparum (W2 Clone) IC50; for P. falciparum (W2 Clone) S.I.: selectivity index = IC50 cytotoxicity to Vero cells / IC50 antimalarial.
From the text: as §1

The next data set deals with LLC-PK-1 cells. The data set can be described thus: In vitro cytotoxicity to mammalian cells, LLC-PK-1. The data set is classed as cell-based. The settings on record: Sus scrofa, LLC-PK1.
From the text: as §1

The mark [3] stands for this setting: 3.3 mg/kg × 3 days post-infection.
[4] abbreviates: 10 mg/kg × 3 days post-infection.
[5] abbreviates: 30 mg/kg × 3 days post-infection.

SMILES strings stand for the structures.

For `CCN1CCN(c2nc(C)cc(NCCCNc3ccnc4cc(Cl)ccc34)n2)CC1` [12m, N-(7-Chloro-quinolin-4-yl)-N′-[2-(4-ethyl-piperazin-1-yl)-6-methyl-pyrimidin-4-yl]-propane-1,3-diamine], the IC50 in the data set on HepG2 cells is greater than 60 µM. In the data set with parasitemia, the parasitemia suppression is listed as 100%, the survival rate is reported as 4/5 and the apparent toxicity result is on record as “No apparent toxicity”. Moreover, in the data set on parasitemia (setting [3]), the “Cure (number of mice without parasitemia till day 28 post-infection)” value is given as 0/5, the “MST (mean survival time)” value is listed as 20.2 days, the “Remarks (toxicity)” value was “No apparent” and the “% Parasitemia suppression Day 5” value was 20.12%. In addition, in the data set on parasitemia (setting [3]), the “% Parasitemia suppression Day 7” value worked out at 19.09%, the “Survival (animals that survived day 28/total animals in group)” value was 0/5 and the “Day of Death” value is on record as 17/21/21/21/21. For the same compound, in the data set with parasitemia (setting [4]), the “Cure (number of mice without parasitemia till day 28 post-infection)” value is given as 0/5, the “MST (mean survival time)” value worked out at 15.2 days, the “Remarks (toxicity)” value was “No apparent” and the “% Parasitemia suppression Day 5” value is recorded as 73.89%. For the same compound, in the data set with parasitemia (setting [4]), the “% Parasitemia suppression Day 7” value stood at 27.14%, the “Survival (animals that survived day 28/total animals in group)” value is recorded as 0/5 and the “Day of Death” value is recorded as 7/21/20/7/21. In the data set on parasitemia (setting [5]), the “Cure (number of mice without parasitemia till day 28 post-infection)” value is 1/5, the “MST (mean survival time)” value is recorded as 27.2 days, the “Remarks (toxicity)” value is recorded as “No apparent” and the “% Parasitemia suppression Day 5” value came out at 100.00%. In the data set with parasitemia (setting [5]), the “% Parasitemia suppression Day 7” value turned out to be 100.00%, the “Survival (animals that survived day 28/total animals in group)” value is recorded as 4/5 and the “Day of Death” value is recorded as 28/28/28/28/24. In addition, in data set [1], the “activity fold higher than artemisinin” value came out at 2 fold, the IC50 was 0.006 µM and the “P. falciparum (D6 Clone) S.I.” value was “(>10000)”. Also, the IC50 in the data set on VERO cells is greater than 60 µM. Besides, in data set [2], the IC50 was 0.061 µM and the “P. falciparum (W2 Clone) S.I.” value is recorded as “(>983)”. Moreover, the IC50 in the data set on LLC-PK-1 cells was greater than 60 µM.
In the data set on HepG2 cells, `Cc1cc(NCCNc2ccnc3cc(Cl)ccc23)nc(N2CCN(C)CC2)n1` [12i, N-(7-Chloro-quinolin-4-yl)-N′-[6-methyl-2-(4-methyl-piperazin-1-yl)-pyrimidin-4-yl]-ethane-1,2-diamine] displayed an IC50 greater than 60 µM. Also, in the data set on parasitemia, the parasitemia suppression is given as 100%, the survival rate is 5/5 and the apparent toxicity result is “No apparent toxicity”. Further, in the data set with parasitemia (setting [3]), the “Cure (number of mice without parasitemia till day 28 post-infection)” value is listed as 0/5, the “MST (mean survival time)” value stood at 19.2 days, the “Remarks (toxicity)” value is “No apparent” and the “% Parasitemia suppression Day 5” value was 23.52%. Moreover, in the data set on parasitemia (setting [3]), the “% Parasitemia suppression Day 7” value came to 35.21%, the “Survival (animals that survived day 28/total animals in group)” value is reported as 1/5 and the “Day of Death” value is listed as 21/28/21/13/13. Also, in the data set on parasitemia (setting [4]), the “Cure (number of mice without parasitemia till day 28 post-infection)” value was 0/5, the “MST (mean survival time)” value was 21.4 days, the “Remarks (toxicity)” value is listed as “No apparent” and the “% Parasitemia suppression Day 5” value is 97.03%. In the data set on parasitemia (setting [4]), the “% Parasitemia suppression Day 7” value amounted to 2.03%, the “Survival (animals that survived day 28/total animals in group)” value is reported as 0/5 and the “Day of Death” value is 21/22/22/21/21. Also, in the data set on parasitemia (setting [5]), the “Cure (number of mice without parasitemia till day 28 post-infection)” value is on record as 4/5, the “MST (mean survival time)” value is 28 days, the “Remarks (toxicity)” value is listed as “No apparent” and the “% Parasitemia suppression Day 5” value is reported as 100.00%. Also, in the data set with parasitemia (setting [5]), the “% Parasitemia suppression Day 7” value stood at 100.00%, the “Survival (animals that survived day 28/total animals in group)” value was 5/5 and the “Day of Death” value was 28/28/28/28/28. In data set [1], the “activity fold higher than artemisinin” value was 2 fold, the IC50 was found to be 0.006 µM and the “P. falciparum (D6 Clone) S.I.” value is on record as “(>10000)”. Also, the IC50 in the data set with VERO cells was greater than 60 µM. Further, in data set [2], the IC50 was 0.046 µM and the “P. falciparum (W2 Clone) S.I.” value is listed as “(>1304)”. Moreover, the IC50 in the data set on LLC-PK-1 cells is greater than 60 µM.
In turn, `Cc1cc(NCCCNc2ccnc3cc(Cl)ccc23)nc(N2CCN(C)CC2)n1` [12j, N-(7-Chloro-quinolin-4-yl)-N′-[6-methyl-2-(4-methyl-piperazin-1-yl)-pyrimidin-4-yl]-propane-1,3-diamine] yielded a melting point of 176 to 178 °C. Besides, the IC50 with HepG2 cells was 25.8 µM. In data set [1], the “activity fold higher than artemisinin” value was 2 fold, the IC50 is 0.007 µM and the “P. falciparum (D6 Clone) S.I.” value was “(>8571)”. In the data set on VERO cells, the IC50 is greater than 60 µM. Besides, in data set [2], the IC50 came out at 0.063 µM and the “P. falciparum (W2 Clone) S.I.” value is “(>952)”. For the same compound, in the data set with LLC-PK-1 cells, 35.2 µM corresponded to half-maximal inhibition (IC50).
`Cc1cc(NCCCCNc2ccnc3cc(Cl)ccc23)nc(N2CCN(C)CC2)n1` [12k, N-(7-Chloro-quinolin-4-yl)-N′-[6-methyl-2-(4-methyl-piperazin-1-yl)-pyrimidin-4-yl]-butane-1,4-diamine]: the melting point lay within 183 to 185 °C. Moreover, half-maximal inhibition with HepG2 cells (IC50) required 27.2 µM. In addition, in data set [1], the IC50 was found to be 0.022 µM and the “P. falciparum (D6 Clone) S.I.” value is given as “(>2727)”. In addition, the IC50 in the data set with VERO cells is greater than 60 µM. Also, in data set [2], the IC50 amounted to 0.021 µM and the “P. falciparum (W2 Clone) S.I.” value is reported as “(>2857)”. This compound registered a concentration for half-maximal inhibition (IC50) in the data set on LLC-PK-1 cells of 34 µM.
In turn, `CCN1CCN(c2nc(C)cc(NCCCCNc3ccnc4cc(Cl)ccc34)n2)CC1` [12n, N-(7-Chloro-quinolin-4-yl)-N′-[2-(4-ethyl-piperazin-1-yl)-6-methyl-pyrimidin-4-yl]-butane-1,4-diamine] came in with a melting point of 101 to 103 °C. In the data set on HepG2 cells, this compound gave an IC50 of 14.9 µM. In data set [1], the IC50 was determined as 0.019 µM and the “P. falciparum (D6 Clone) S.I.” value came to 1678.9. For the same compound, the IC50 in the data set on VERO cells stood at 31.9 µM. Besides, in data set [2], the IC50 is 0.018 µM and the “P. falciparum (W2 Clone) S.I.” value is 1772.2. The compound further had an IC50 in the data set with LLC-PK-1 cells of 10.5 µM.
Compound `Cc1cc(NCCCCCCNc2ccnc3cc(Cl)ccc23)nc(N2CCN(C)CC2)n1` [12l, N-(7-Chloro-quinolin-4-yl)-N′-[6-methyl-2-(4-methyl-piperazin-1-yl)-pyrimidin-4-yl]-hexane-1,6-diamine] displayed a melting point of 152 to 154 °C. Moreover, in the data set with HepG2 cells, the IC50 is less than 6.7 µM. Moreover, in data set [1], the “activity fold higher than artemisinin” value is given as 2 fold, the IC50 is 0.007 µM, the “selectivity index of antimalarial activity” value (shortened to “selectivity index”) is given as “considerably high” and the “P. falciparum (D6 Clone) S.I.” value was “(>1457)”. Besides, in the data set on VERO cells, the IC50 stood at 10.2 µM and the “toxicity to cell lines” value is listed as “showed toxicity”. Also, in data set [2], the IC50 turned out to be 0.016 µM and the “P. falciparum (W2 Clone) S.I.” value is on record as “(>637)”. The IC50 in the data set on LLC-PK-1 cells was determined as 7.4 µM.
For the compound `Cc1cc(NCCCCCCNc2ccnc3cc(Cl)ccc23)nc(N2CCOCC2)n1` [12h, N-(7-Chloro-quinolin-4-yl)-N′-(6-methyl-2-morpholin-4-yl-pyrimidin-4-yl)-hexane-1,6-diamine], the melting point was 107 to 109 °C. Besides, the IC50 in the data set on HepG2 cells is less than 6.7 µM. In data set [1], the IC50 was found to be 0.041 µM, the “selectivity index” value is recorded as “considerably high” and the “P. falciparum (D6 Clone) S.I.” value was 417.0. Also, in the data set with VERO cells, the IC50 worked out at 17.1 µM and the “toxicity to cell lines” value was “showed toxicity”. In data set [2], the IC50 was determined as 0.12 µM and the “P. falciparum (W2 Clone) S.I.” value turned out to be 142.5. This compound came in with an IC50 in the data set with LLC-PK-1 cells of 9.8 µM.
In the case of `Cc1cc(NCCNc2ccnc3cc(Cl)ccc23)nc(N2CCCCC2)n1` [12a, N-(7-chloro-quinolin-4-yl)-N′-(6-methyl-2-piperidin-1-yl-pyrimidin-4-yl)-ethane-1,2-diamine], the melting point is 177 to 179 °C.
Still for that read-out and setting: for `Cc1cc(NCCCCNc2ccnc3cc(Cl)ccc23)nc(N2CCOCC2)n1` [12g, N-(7-Chloro-quinolin-4-yl)-N′-(6-methyl-2-morpholin-4-yl-pyrimidin-4-yl)-butane-1,4-diamine] the value was 214 to 216 °C.
As for `Cc1cc(NCCCCCCNc2ccnc3cc(Cl)ccc23)nc(N2CCCCC2)n1` [12d, N-(7-Chloro-quinolin-4-yl)-N′-(6-methyl-2-piperidin-1-yl-pyrimidin-4-yl)-hexane-1,6-diamine], the melting point is 97 to 99 °C. Also, the IC50 in the data set on HepG2 cells was less than 6.7 µM. Also, in data set [1], the IC50 was 0.066 µM, the “selectivity index” value is reported as “considerably high” and the “P. falciparum (D6 Clone) S.I.” value worked out at 142.4. In the data set with VERO cells, the 50% inhibitory concentration (IC50) was found to be 9.4 µM and the “toxicity to cell lines” value was “showed toxicity”. Moreover, in data set [2], the IC50 came to 0.128 µM and the “P. falciparum (W2 Clone) S.I.” value was determined as 73.4. In the data set on LLC-PK-1 cells, this compound came in with an IC50 of less than 6.7 µM.

For orientation: IC50 means the concentration that inhibits the measured activity by half. What is called melting point is the temperature, or range, at which the solid turns liquid.

These data come from patent publication US11026943B2, “Aminoquinoline derivatives and uses thereof” (UNIVERSITY OF DELHI, priority 2012, dated 2021).
